Columns and labels:
HCV = experiment: Anti-HCV assay (EC50); format: cell-based; settings: Hepatitis C virus, read-out: HCV EC50
Description: Anti-HCV assay: Anti-HCV assays are performed as described by Cho et al. “Identification of a class of HCV inhibitors directed against the nonstructural protein NS4B.” Sci. Transl. Med. 2011; 2(15):15ra6.

EV71 = EV71 antiviral assay (EC50); format: cell-based, Enterovirus 71; settings: Enterovirus A, EV71
[1] = Cell toxicity (CC50) in HRV assay; settings: human, HRV CC50
[2] = Cell toxicity (CC50) in EV71 assay; settings: EV71 CC50
EV68 = EV68 antiviral assay (EC50); format: cell-based
[3] = Cell toxicity (CC50) in EV68 assay; settings: EV68 CC50

Compound | EC50 (HCV) [nM] | EC50 (EV71) [nM] | CC50 [1] [nM] | CC50 [2] [nM] | EC50 (EV68) [nM] | CC50 [3] [nM]
COc1ccc(-c2sc(NC(C)(C)C3CCOCC3)nc2C)cc1S(=O)(=O)Nc1ccc(Br)nc1F [Compound S-2] | 2.3 | 0.8 | 33400 | 66600 |  | 
COc1ccc(-c2sc(NC(C)(C)c3ccccc3)nc2C)cc1S(=O)(=O)NC1CCN(C=O)CC1 [Compound S-43] | 2.1 | 0.3 | 100000 | 17500 | 5.1 | 100000
COc1ccc(-c2sc(NC(C)(C)C3CCOCC3)nc2C)cc1S(=O)(=O)Nc1cccnc1OC [Compound S-18] | 11.9 | 4.4 | 62100 | 43200 | 14 | 80000
COc1ccc(-c2sc(NC34CC(C3)C4)nc2C)cc1S(=O)(=O)Nc1c(C)cccc1F [Compound S-55] | 1 | 1.8 | 19400 | 100000 | 6.8 | 22100
COc1ccc(-c2sc(NC(C)(C)C3CCOCC3)nc2C)cc1S(=O)(=O)Nc1cccnc1C(F)(F)F [Compound S-15] | 82 | 65.3 | 100000 | 100000 | 335 | 63700
COc1ccc(-c2sc(NC(C)(C)C3CCOCC3)nc2C)cc1S(=O)(=O)Nc1c(F)cccc1C(F)F [Compound S-31] | 0.5 | 0.2 | 52300 | 70600 | 0.8 | 61800
COc1ccc(-c2oc(NC(C)(C)c3ccccc3)nc2C)cc1S(=O)(=O)Nc1cccnc1C [Compound S-33] | 0.1 | 0.1 | 30500 | 71300 | 0.7 | 5230
COc1ccc(-c2sc(NC3(C4CCOCC4)CC3)nc2C)cc1S(=O)(=O)Nc1ccccc1Cl [Compound S-19] | 31.5 | 15.8 | 37700 | 18300 | 22100 | 39400
COc1ccc(-c2sc(NC(C)(C)C3CCOCC3)nc2C)cc1S(=O)(=O)NC1CCS(=O)(=O)CC1 [Compound S-11] | 57.1 | 7.2 | 40700 | 26000 | 3830 | 43300
COc1ccc(-c2sc(NC(C)(C)C3CCOCC3)nc2C)cc1S(=O)(=O)Nc1c(F)cccc1CO [Compound S-22] | 2.7 | 0.8 | 15500 | 16500 | 4.8 | 19300
COc1ccc(-c2sc(NC(C)(C)C3CCOCC3)nc2C)cc1S(=O)(=O)Nc1ccncc1C(F)(F)F [Compound S-26] | 18.1 | 2.3 | 38700 | 88700 | 1410 | 39100
COc1ccc(-c2sc(NC(C)(C)c3ccccc3)nc2C)cc1S(=O)(=O)Nc1ccncc1C(F)(F)F [Compound S-44] | 30.6 | 3.5 | 32100 | 18200 | 1990 | 33500
COc1ccc(-c2sc(NC(C)(C)C3CCOCC3)nc2C)cc1S(=O)(=O)NC1CCN(C(=O)OC(C)(C)C)CC1 [Compound S-9] | 5 | 4.8 | 100000 | 69300 | 29 | 100000
COc1ccc(-c2sc(NC(C)(C)C3CCNCC3)nc2C)cc1S(=O)(=O)Nc1cccnc1C [Compound S-53] | 12400 | 3560 | 100000 | 47900 | 12300 | 100000
COc1ccc(-c2sc(NC(C)(C)C3CCOCC3)nc2C)cc1S(=O)(=O)Nc1cccc2[nH]cc(Br)c12 [Compound S-27] | 2.3 | 3.6 | 1410 | 6230 | 5.9 | 1760
COC(=O)N1CCC(NS(=O)(=O)c2cc(-c3sc(NC(C)(C)c4ccccc4)nc3C)ccc2OC)CC1 [Compound S-36] | 0.1 | 0.1 | 30500 | 71300 | 0.7 | 5230
COc1ccc(-c2sc(NC(C)(C)C3CCOCC3)nc2C)cc1S(=O)(=O)NC1CCN(C(=O)OC(F)(F)F)CC1 [Compound S-20] | 25.7 | 3.6 | 49400 | 18900 | 50.7 | 51600
COc1ccc(-c2sc(NC(C)(C)C3CCOCC3)nc2C)cc1S(=O)(=O)NC1CCN(C(C)=O)CC1 [Compound S-12] | 17.5 | 4.1 | 65900 | 53800 | 106 | 66200

Compound | EC50 (HCV) [nM] | EC50 (EV71) [nM] | CC50 [1] [nM] | CC50 [2] [nM] | EC50 (EV68) [nM] | CC50 [3] [nM]
COc1ccc(-c2oc(NC(C)(C)c3ccccc3)nc2C)cc1S(=O)(=O)Nc1c(C)cccc1F [Compound S-65] | 1.8 | 2.7 | 46300 | 31300 | 2.4 | 1700
COc1ccc(-c2sc(NC(C)(C)c3ccncc3)nc2C)cc1S(=O)(=O)Nc1ccncc1C [Compound S-49] | 10 | 1 | 66300 | 29500 | 50.7 | 71400
COc1ccc(-c2sc(NC(C)(C)C3CCOCC3)nc2C)cc1S(=O)(=O)Nc1ncccc1C [Compound S-25] | 20.6 | 14.1 | 24800 | 90700 | 93.1 | 24000
COc1ccc(-c2sc(NC(C)(C)C3CCOCC3)nc2C)cc1S(=O)(=O)Nc1ncc[nH]1 [Compound S-24] | 3.7 | 4.6 | 9620 | 73000 | 11.1 | 13400
COc1ccc(-c2sc(NC(C)(C)C3CCOCC3)nc2C)cc1S(=O)(=O)Nc1ccncc1C [Compound S-50] | 7.6 | 1.2 | 46600 | 38100 | 12.8 | 37600
COc1ccc(-c2sc(NC(C)(C)C3CCOCC3)nc2C)cc1S(=O)(=O)Nc1nccn1C [Compound S-29] | 5.7 | 9.8 | 98700 | 100000 | 39.1 | 102000
COc1ccc(-c2sc(NC(C)(C)C3CCOCC3)nc2C)cc1S(=O)(=O)Nc1ccc(F)cc1C [Compound S-8] | 0.8 | 0.3 | 8470 | 91900 |  | 
COc1ccc(-c2sc(NC(C)(C)C3CCN(C(C)=O)CC3)nc2C)cc1S(=O)(=O)Nc1ccc(F)cc1Cl [Compound S-51] | 1.5 | 1.3 | 52700 | 62100 | 11.5 | 37000
COc1ccc(-c2sc(NC(C)(C)C3CCOCC3)nc2C)cc1S(=O)(=O)NC1CCN(S(C)(=O)=O)CC1 [Compound S-13] | 8.1 | 1.3 | 102000 | 99400 | 39.1 | 102000
COCC(C)(C)Nc1nc(C)c(-c2ccc(OC)c(S(=O)(=O)Nc3c(C)cccc3F)c2)s1 [Compound S-63] | 1.5 | 8.4 | 27700 | 83800 | 3.4 | 40600
COc1ccc(-c2sc(NC(C)(C)C3CCNCC3)nc2C)cc1S(=O)(=O)Nc1ccc(F)cc1Cl [Compound S-52] | 75000 | 75000 | 2320 | 3070 | 100000 | 2230
COc1ccc(-c2oc(NC(C)(C)c3cccnc3)nc2C)cc1S(=O)(=O)Nc1ccncc1C [Compound S-48] | 74.5 | 4.5 | 100000 | 100000 | 217 | 100000
COc1ccc(-c2oc(NC(C)(C)c3ccccc3)nc2C)cc1S(=O)(=O)Nc1ccncc1C [Compound S-46] | 0.9 | 0.4 | 52400 | 24500 | 2.6 | 44500
COc1ccc(-c2sc(NC(C)(C)C3CCN(C(C)=O)CC3)nc2C)cc1S(=O)(=O)Nc1cccnc1C [Compound S-21] | 2.4 | 3.1 | 87600 | 91300 | 10.7 | 94800
COc1ccc(-c2sc(NC(C)(C)c3ncccn3)nc2C)cc1S(=O)(=O)Nc1ccccc1C(F)(F)F [Compound S-35] | 0.2 | 0.1 | 100000 | 100000 | 0.6 | 100000
COc1ccc(-c2sc(NC(C)(C)c3ccccc3)nc2C)cc1S(=O)(=O)NC1CCNCC1 [Compound S-41] | 9.9 | 0.9 | 1900 | 776 | 58.5 | 2090
COc1ccc(-c2sc(NC(C)(C)C3CCOCC3)nc2C)cc1S(=O)(=O)Nc1ccc(NC(C)=O)cc1 [Compound S-40] | 0.2 | 0.0751 | 40800 | 78100 | 1.2 | 42700
COc1ccc(-c2sc(NC(C)(C)C3CCOCC3)nc2C)cc1S(=O)(=O)NC1CCC(O)CC1 (stereo not drawn) [Compound S-5] | 1.7 | 0.8 | 57000 | 47200 |  | 
